Reference: patent publication US10350230B2, “Use of albiflorin or pharmaceutically acceptable salt for prevention and/or treatment of irritable bowel syndrome” (priority 2015, dated 2019)
Counter-ions that a name gives are not always drawn.

Legend:
[1] = tested on: diarrhea model of irritable bowel syndrome induced by restraint stress in rats; assay: Diarrhea of irritable bowel syndrome induced by restraint stress in rat; type: in vivo; conditions: for number of fecal pellets excreted (result in words): high-, mid- and low-dose groups, compared with model control group; for Number of fecal pellets excreted in 1 h / Time for excreting glass ball: 7 days, restraint stress rats
Excerpt: The restraint stress stimulus method was used to induce abnormal defecation in rats, thereby leading to increase of colon smooth muscle movement and accelerating intestinal transport.
The animals were randomly divided into 10 groups as follows: normal control group; model control group (normal saline); high-, mid- and low-dose groups of test drugs (albiflorin and paeoniflorin); and positive control groups (loperamide hydrochloride (Imodium™) and trimebutine maleate (Yuanshengliwei™)). Gavage administration was performed on each group once a day, for 7 consecutive days.
The rats were deprived of food for 24 hours before the test. Half an hour after the last administration, the rats were anesthetized with ethyl ether. After the rat fainted away, its front shoulder, front upper limbs and chest were bound with scotch tape to prevent the front upper limbs from scratching its face, but the movement of the front upper limbs was not limited. A glass ball with a diameter of 3 mm was placed into the rectum 3 cm away from anus. The rats were moved rapidly into cages which were padded with clean filter paper. Timing started when the rat woke up, and the binding time was one hour. The number of fecal pellets excreted by the rat in one hour and the time for excreting glass ball were recorded. Statistical analysis of data was performed using t-test for intergroup comparison.

[2] = tested on: small intestine spasm models induced by Neostigmine in mice; assay: Abdominal pain of irritable bowel syndrome in mice (Neostigmine small intestine spasm, carbon powder propulsion); type: in vivo; conditions: for propulsive distance and propulsive rate of carbon powder suspension in mice intestine tract stimulated by Neostigmine (result in words): high-, mid- and low-dose groups, compared with pathology modeling control group; for Propulsive distance / Propulsive rate: 7 days, Neostigmine mice, carbon powder
Protocol: All the animals were deprived of food for 12 hours before the test. […] After 15 minutes, gavage administration of carbon powder paste was performed on all groups (0.2 ml/10 g body weight, each dosage contains 0.05 g of carbon powder and 0.02 g of carboxymethyl cellulose). The animals were killed 20 minutes later. The propulsive length of carbon powder in small intestine and the total length of small intestine were measured respectively, and then the propulsive rate of carbon powder was calculated. Statistical analysis of data was performed using t-test for intergroup comparison.
The propulsive distance: to measure the propulsive length of carbon powder in small intestine.
Propulsive rate (%)=(propulsive length/total length of small intestine)×100%.

[3] = tested on: sleep time of mice induced by threshold dose of pentobarbital sodium; assay: Sleep induced by pentobarbital sodium in mice; type: in vivo; conditions: for Sleep time: 60 min before pentobarbital sodium 50 mg/kg i.p., mice; for sleep time of mice induced by threshold dose of pentobarbital sodium (result in words): compared with normal saline group
Protocol: Mice with a body weight of 18-22 g, male and female, were selected. Mice with a single-sex were used in each test. The mice were randomly divided into groups as follows: albiflorin group, diazepam group (positive control group) and control group (normal saline). There were 10 mice in each group. 60 minutes after the gavage administration, threshold dose of pentobarbital sodium (50 mg/kg) was injected intraperitoneally. The disappearance of righting reflex was recorded as time to fall asleep, and the period from the righting reflex being disappeared until the righting reflex being recovered was recorded as sleep duration time. Compared with the control group, the significance was determined by time t test.

[4] = tested on: mice in light-dark shuttle box; assay: Light-dark shuttle box test in mice (anti-anxiety test); type: in vivo; conditions: for number of times of returning from the dark box back to the light box (result in words): albiflorin high-, mid- and low-dose groups, diazepam group, compared with normal control group; for Number of times of returning from dark box back to light box: 7 days, mice
Protocol: Mice were randomly divided into 5 groups, i.e. high-dose group of albiflorin (14 mg/kg/d), mid-dose group of albiflorin (7 mg/kg/d), low-dose group of albiflorin (3.5 mg/kg/d), diazepam group (2.5 mg/kg/d), and normal control group. Gavage administration was performed once a day, for 7 consecutive days. During the administration, animals had free access to food and water. The test was carried out 1 hour after the administration on Day 8.
Within the light-dark shuttle box (44 cm×21 cm×21 cm), the dark box accounts for one third thereof, with a cover on the top; and the light box accounts for two thirds thereof, with illumination brightness; and there is a hole between the two boxes for animal to pass through. During the test, mice were placed in the center of the light box, back to the dark box, and then observed. The number of times of entering into the dark box followed by returning to the light box in mice was counted, which was used as an index for the evaluation of anti-anxiety effect of a drug.
8.1.5 Statistical Analysis The data were expressed as X±SD, and the experimental results were analyzed by one-way ANOVA, using SPSS 11.5 statistical software.

[5] = tested on: chronic unpredictable stress (CUS) model in rats; assay: Chronic stress depression model in rats: open field test; conditions: for Number of times of horizontal movement in open field / Number of times of vertical movement in open field: CUS rats, 5 min, Means±SEM; for number of times of horizontal movement of rats in open field (result in words) / number of times of vertical movement of rats in open field (result in words): compared with the model group
[6] = tested on: chronic unpredictable stress (CUS) model in rats; assay: Chronic stress depression model in rats: sucrose aqueous solution-drinking test; conditions: for Sugar aqueous solution preference: 38 days, CUS rats, Means±SEM; for sugar aqueous solution preference of rats (result in words): compared with the model group

In the case of C[C@]12C[C@@H](O)[C@@H]3C[C@@]1(O[C@@H]1O[C@H](CO)[C@@H](O)[C@H](O)[C@H]1O)[C@@]3(COC(=O)c1ccccc1)C(=O)O2 [Albiflorin], the “number of fecal pellets excreted (result in words)” value [1] is reported as “decreased obviously”, the “Number of fecal pellets excreted in 1 h” value ([1]; high-dose, 9.8 mg/kg/d gavage) is reported as 2.50 ± 1.27 and the “Time for excreting glass ball” value ([1]; high-dose, 9.8 mg/kg/d gavage) is reported as 10.60 ± 17.58 min. For the same compound, the “Number of fecal pellets excreted in 1 h” value ([1]; low-dose, 2.45 mg/kg/d gavage) was 2.60 ± 1.84, the “Time for excreting glass ball” value ([1]; low-dose, 2.45 mg/kg/d gavage) was 19.90 ± 17.69 min and the “Number of fecal pellets excreted in 1 h” value ([1]; mid-dose, 4.9 mg/kg/d gavage) was 1.80 ± 1.48. The “Time for excreting glass ball” value ([1]; mid-dose, 4.9 mg/kg/d gavage) was 12.00 ± 17.53 min, the “propulsive distance and propulsive rate of carbon powder suspension in mice intestine tract stimulated by Neostigmine (result in words)” value [2] was “decreased obviously” and the Propulsive distance ([2]; high-dose, 14 mg/kg/d gavage) was 22.80 ± 4.78 cm. For the same compound, the Propulsive rate ([2]; high-dose, 14 mg/kg/d gavage) was 57.47 ± 10.67 %, the Propulsive distance ([2]; low-dose, 3.5 mg/kg/d gavage) was 22.10 ± 3.90 cm and the Propulsive rate ([2]; low-dose, 3.5 mg/kg/d gavage) was 57.05 ± 4.69 %. The Propulsive distance ([2]; mid-dose, 7 mg/kg/d gavage) was 20.80 ± 4.64 cm, the Propulsive rate ([2]; mid-dose, 7 mg/kg/d gavage) was 54.53 ± 9.39 % and the Sleep time ([3]; 7 mg/kg gavage) was 90.2 ± 15.1 min. The Sleep time ([3]; 14 mg/kg gavage) was 98.8 ± 12.4 min, the “sleep time of mice induced by threshold dose of pentobarbital sodium (result in words)” value [3] was “obviously prolong” and the “number of times of returning from the dark box back to the light box (result in words)” value [4] was “significantly increase”. The “Number of times of returning from dark box back to light box” value (“Number of times … to light box” for short) ([4]; high-dose, 14 mg/kg/d gavage) was 13.9 ± 3.23, the “Number of times … to light box” value ([4]; low-dose, 3.5 mg/kg/d gavage) was 10.6 ± 3.42 and the “Number of times … to light box” value ([4]; mid-dose, 7 mg/kg/d gavage) was 12.1 ± 3.51. The “Number of times of horizontal movement in open field” value ([5]; 3.5 mg/kg gavage once a day) was 95.40 ± 9.23, the “Number of times of vertical movement in open field” value ([5]; 3.5 mg/kg gavage once a day) was 20.50 ± 1.81 and the “number of times of horizontal movement of rats in open field (result in words)” value ([5]; 3.5 mg/kg) was “obviously increased”. For the same compound, the “number of times of horizontal movement of rats in open field (result in words)” value ([5]; 7.0 mg/kg and 14.0 mg/kg) was “can not obviously increase”, the “Number of times of horizontal movement in open field” value ([5]; 7.0 mg/kg gavage once a day) was 98.20 ± 8.61 and the “Number of times of vertical movement in open field” value ([5]; 7.0 mg/kg gavage once a day) was 21.10 ± 2.17. For the same compound, the “Number of times of horizontal movement in open field” value ([5]; 14.0 mg/kg gavage once a day) was 104.10 ± 11.11, the “Number of times of vertical movement in open field” value ([5]; 14.0 mg/kg gavage once a day) was 22.10 ± 2.66 and the “number of times of vertical movement of rats in open field (result in words)” value ([5]; 3.5-14.0 mg/kg) was “obviously increased”. The “Sugar aqueous solution preference” value ([6]; 3.5 mg/kg gavage once a day) was 60.04 ± 10.86%, the “sugar aqueous solution preference of rats (result in words)” value ([6]; 3.5 mg/kg) was “did not obviously increase” and the “sugar aqueous solution preference of rats (result in words)” value ([6]; 7.0 mg/kg and 14.0 mg/kg) was “obviously increased”. For the same compound, the “Sugar aqueous solution preference” value ([6]; 7.0 mg/kg gavage once a day) was 76.19 ± 5.35 % and the “Sugar aqueous solution preference” value ([6]; 14.0 mg/kg gavage once a day) was 78.12 ± 4.04 %.
For CN1C(=O)CN=C(c2ccccc2)c2cc(Cl)ccc21 [Diazepam, diazepam, reference compound], the Sleep time ([3]; 0.5 mg/kg gavage) was 96. ± 14.6 min, the Sleep time ([3]; 1 mg/kg gavage) was 102.0 ± 16.2 min and the “sleep time of mice induced by threshold dose of pentobarbital sodium (result in words)” value [3] was “obviously prolong”. The “Number of times … to light box” value ([4]; 2.5 mg/kg/d gavage) was 13.6 ± 3.35 and the “number of times of returning from the dark box back to the light box (result in words)” value [4] was “significantly increase”.
CNCCC(Oc1ccc(C(F)(F)F)cc1)c1ccccc1 (stereo not shown) [Flx, Fluoxetine, reference compound] was tested, and the “Number of times of horizontal movement in open field” value ([5]; 10 mg/kg gavage once a day) was 90.60 ± 7.72, the “Number of times of vertical movement in open field” value ([5]; 10 mg/kg gavage once a day) was 20.80 ± 1.93 and the “number of times of horizontal movement of rats in open field (result in words)” value ([5]; 10 mg/kg long-term gavage) was “obviously increased”. The “number of times of vertical movement of rats in open field (result in words)” value ([5]; 10 mg/kg long-term gavage) was “obviously increased”, the “Sugar aqueous solution preference” value ([6]; 10 mg/kg gavage once a day) was 70.63 ± 6.86 % and the “sugar aqueous solution preference of rats (result in words)” value ([6]; 10 mg/kg long-term gavage) was “obviously increased”.
With CN(C)C(=O)C(CCN1CCC(O)(c2ccc(Cl)cc2)CC1)(c1ccccc1)c1ccccc1 [Loperamide hydrochloride, loperamide hydrochloride] the “Number of fecal pellets excreted in 1 h” value ([1]; 0.17 mg/kg/d gavage) was 1.40 ± 0.97 and the “Time for excreting glass ball” value ([1]; 0.17 mg/kg/d gavage) was 26.00 ± 28.30 min.
With C[C@@]12C[C@@]3(O)O[C@@H](O1)[C@]1(COC(=O)c4ccccc4)[C@H]3C[C@@]12O[C@@H]1O[C@H](CO)[C@@H](O)[C@H](O)[C@H]1O [Paeoniflorin, paeoniflorin, reference compound] the “number of fecal pellets excreted (result in words)” value [1] was “only a trend to decrease”, the “Number of fecal pellets excreted in 1 h” value ([1]; high-dose, 9.8 mg/kg/d gavage) was 3.71 ± 2.02 and the “Time for excreting glass ball” value ([1]; high-dose, 9.8 mg/kg/d gavage) was 10.70 ± 16.06 min. The “Number of fecal pellets excreted in 1 h” value ([1]; low-dose, 2.45 mg/kg/d gavage) was 4.10 ± 1.81, the “Time for excreting glass ball” value ([1]; low-dose, 2.45 mg/kg/d gavage) was 10.64 ± 15.01 min and the “Number of fecal pellets excreted in 1 h” value ([1]; mid-dose, 4.9 mg/kg/d gavage) was 3.96 ± 1.36. For the same compound, the “Time for excreting glass ball” value ([1]; mid-dose, 4.9 mg/kg/d gavage) was 10.50 ± 14.03 min, the “propulsive distance and propulsive rate of carbon powder suspension in mice intestine tract stimulated by Neostigmine (result in words)” value [2] was “decreased only in high-dose group” and the Propulsive distance ([2]; high-dose, 14 mg/kg/d gavage) was 28.80 ± 3.79 cm. It also gave a Propulsive rate ([2]; high-dose, 14 mg/kg/d gavage) of 65.64 ± 8.80%, a Propulsive distance ([2]; low-dose, 3.5 mg/kg/d gavage) of 31.80 ± 3.79 cm and a Propulsive rate ([2]; low-dose, 3.5 mg/kg/d gavage) of 72.64 ± 4.69%. For the same compound, the Propulsive distance ([2]; mid-dose, 7 mg/kg/d gavage) was 31.00 ± 1.93 cm and the Propulsive rate ([2]; mid-dose, 7 mg/kg/d gavage) was 71.92 ± 7.51%.
trimebutine maleate was tested, and the “Number of fecal pellets excreted in 1 h” value ([1]; 6.25 mg/kg/d gavage) was 3.70 ± 2.26 and the “Time for excreting glass ball” value ([1]; 6.25 mg/kg/d gavage) was 17.80 ± 21.88 min.
